Measured values from patent US4514404A, “Process for obtaining complex of 3-methoxy-N-methylmorphinan with 7-theophyllineacetic acid (1:2)” (Prodes, S.A., priority 1982, dated 1985).
Values joined by “and” are separate entries in the source; they are usually repeats but may differ in a detail not shown here. Identical values can stand only once. “Also recorded” adds a separate entry of the source.

Key:
[1] = system: cough; experiment: antitussive activity: cough induced by sulfuric acid atmosphere (Chen et al. 1960), oral; assay type: in vivo, guinea pig (male); conditions: for inhibition of the cough (individual animal) / number of coughs after administration (individual animal) / inhibition of the cough, average value: one hour after administration; for inhibition of the cough (individual animal) / number of coughs after administration (individual animal): individual animals
Procedure: This activity has been compared with the activity of codeine and dextromethorphan by the experimental mode of Chen, J.Y.P. and col. (1960), consisting in exciting guinea pigs subjected to an atmosphere of sulfuric acid to cough.
There are used guinea pig males having a weight of 300-400 grs which are treated in respective lots, with codeine (40 mg/kg.; n=6), dextromethorphan (40 mg/kg.; n=6), theophane (20 mg/kg.; n=5) and theophane (40 mg/kg.; n=6), wherein "n" signifies the number of animals tested in the respective lots and the other data in the parentheses refers to the dosage amount, e.g. 40 mg/kg. The numbers of occurrences of coughing of each animal before and one hour after the oral administration of the drug are measured.
In Table I are detailed the results obtained by the experiment, before and after the administration of the drug as well as the percentage of inhibition of the cough.

[2] = system: cardiovascular system; experiment: cardiovascular activity (technique of Smith, 1961); assay type: in vivo, guinea pig (male); conditions: 0.5 to 10 mg/kg
Excerpt: The cardiovascular activity (technique of Smith, 1961) and the neuropharmacological activity (Irwin test) of the theophane product have been studied respectively in guinea pigs and rats (males).

[3] = system: Wistar rats; experiment: subacute toxicity, repeated oral administration over 1 month; assay type: in vivo, rat (Wistar); conditions: 20, 60 and 120 mg/kg/day oral, both sexes
Procedure: The subacute toxicity of theophane has been studied after repeated oral administrations over a period of 1 month in Wistar rats of both sexes. The theophane dosage used was 20 mg/kg/day, 60 mg/kg/day and 120 mg/kg/day. One lot of control animals received only excipient.

[4] = system: Sprague-Dawley rats and fetuses of the first generation; experiment: fetal and teratogenous toxicity, oral during organogenesis; assay type: in vivo, rat (Sprague-Dawley); conditions: 20, 65 and 130 mg/kg/day oral
[5] = system: rat; experiment: acute toxicity in the rat (Litchfield and Wilcoxon); assay type: in vivo
Excerpt: (§1) The acute toxicity of theophane has been studied orally and i.p. in the mouse and in the rat. The LD50 and the limits of reliance have been determined by the technique of Litchfield and Wilcoxon. Table III summarizes the values of the obtained LD50, as well as of LD0.

[6] = system: auxotrophic S.typhimurium strains; experiment: mutagenic effect (Ames); assay type: cell-based; conditions: six dosages in DMSO, presence and absence of metabolic activation
Excerpt: The possible mutagenic effect of theophane has been evaluated according to the text described by Ames, B. N. and cols (1975) using auxotrophic S.typhimurium strains for the histidine. The product has been studied at six different dosages, dissolved in DMSO, and in the presence and absence of a system of metabolic activation and in front of positive controls.

[7] = system: mouse; experiment: acute toxicity in the mouse (Litchfield and Wilcoxon); assay type: in vivo
Excerpt: as §1

[8] = system: tracheal chain of guinea pigs; experiment: bronchodilatory activity in vitro, tracheal chain of guinea pigs (Castillo and de Beer), histamine as bronchoconstrictor; set-up: species or system guinea pig (male); conditions: for time elapsed until obtaining an activity of 50%: 5×10^-4 molar
Excerpt: The bronchodilatory activity "in vitro" of the compound of the present invention has been studied, using the method of tracheal chain of guinea pigs, described by J. C. Castillo and E. J. J. de Beer in Pharmacol.Expt. Therap., 90, 104. The trachea of male guinea pigs having a weight of 250-350 grs were extracted; then the rings are sectioned, always endeavoring that the trachea is bathed by the corresponding perfusion liquid and under oxygenation conditions for joining posteriorly the tracheal rings by means of a silk yarn forming the chain giving response to the drugs to be administered. The chain is placed in the bath of organs fixed to the registering arm of a chymograph. The bath is to be maintained at the constant temperature of 37.5° C. and using, as the liquid, the Krebs-Hanselett solution.
As a bronchoconstrictor drug, there is used histamine at a concentration of 1×10^-5 molar.
The bronchodilatory activity of theophane and theophylline have been compared, for various dosages, and the results obtained are presented in Table II.

[9] = 40 mg/kg oral, n=6, codeine p < 0.001, dextromethorphan and theophane p < 0.005

COc1ccc2c3c1O[C@H]1[C@@H](O)C=C[C@H]4[C@@H](C2)N(C)CC[C@@]341 [Codeine, reference compound]
inhibition of the cough (individual animal) ([1]; 40 mg/kg oral): 71.4% and 100.0% and 81.8% | number of coughs after administration (individual animal) ([1]; 40 mg/kg oral): 2 and 0 | inhibition of the cough, average value [1, 9]: 92.2 ± 12.5%

COc1ccc2c(c1)[C@]13CCCC[C@@H]1[C@H](C2)N(C)CC3 [Dextromethorphan, reference compound]
inhibition of the cough (individual animal) ([1]; 40 mg/kg oral): 33.3% and 60.0% and 100.0% and 75.0% and 50.0% | number of coughs after administration (individual animal) ([1]; 40 mg/kg oral): 4 and 6 and 0 and 1 | inhibition of the cough, average value [1, 9]: 69.7 ± 27.0%

COc1ccc2c(c1)[C@@]13CCCC[C@H]1[C@@H](C2)N(C)CC3.Cn1c(=O)c2c(ncn2CC(=O)O)n(C)c1=O.Cn1c(=O)c2c(ncn2CC(=O)O)n(C)c1=O [Theophane, complex of 3-methoxy-N-methylmorphinan with 7-theophyllineacetic acid (1:2)]
effects on the cardiovascular system [2]: do not produce effects on the cardiovascular system | inhibition of the cough (individual animal) ([1]; 20 mg/kg oral): 33.3% and 28.57% and 66.6% and 60.0% | number of coughs after administration (individual animal) ([1]; 20 mg/kg oral): 4 and 10 and 1 and 2 | inhibition of the cough, average value ([1]; 20 mg/kg oral, n=5, p < 0.005): 44.35 ± 17.5% | inhibition of the cough (individual animal) ([1]; 40 mg/kg oral): 60.0% and 72.2% and 30.7% and 100.0% | number of coughs after administration (individual animal) ([1]; 40 mg/kg oral): 2 and 5 and 9 and 0 and 4 | inhibition of the cough, average value [1, 9]: 70.5 ± 26.6% | antitussive activity (in words) ([1]; oral, 20 and 40 mg/kg, guinea pigs): potent antitussive activity; also recorded: antitussive activity which is significant with regard to its proper control | antitussive activity based on the 3-methoxy-N-methylmorphinan content, compared with dextromethorphan ([1]; referring to the weight index, 40 mg/kg): greater antitussive activity | subacute toxicity (mortality, weight, diet consumption, hematic, biochemical, urinary parameters, histopathology) [3]: null toxicity | teratogenous effects [4]: does not induce teratogenous effects | toxic effects to gestating females and their offspring [4]: does not produce toxic effects to the gestating females and their offspring | LD0 ([5]; i.p.): 156.4 mg/kg | LD0 ([5]; oral): 204.4 mg/kg | mutagenic activity [6]: does not have any mutagenic activity | reversion increase [6]: No reversion increase could be observed | LD0 ([7]; i.p.): 102.3 mg/kg | LD0 ([7]; oral): 182.2 mg/kg | bronchodilatory activity in vitro compared with theophylline (in words) [8]: bronchodilatory activity "in vitro" at lower concentrations than theophylline | bronchodilatory activity ([8]; 1 × 10^-3 molar, 1000 µM): 100% | bronchodilatory activity ([8]; 1 × 10^-4 molar, 100 µM): 54.6% | bronchodilatory activity ([8]; 1 × 10^-5 molar, 10 µM): 0% | bronchodilatory activity ([8]; 2 × 10^-4 molar, 200 µM): 37.5% | time elapsed until obtaining an activity of 50% [8]: 280 s | bronchodilatory activity ([8]; 5 × 10^-4 molar, 500 µM): 85.3% | bronchodilatory activity ([8]; 5 × 10^-5 molar, 50 µM): 8.3%

Cn1c(=O)c2[nH]cnc2n(C)c1=O [Theophylline]
time elapsed until obtaining an activity of 50% [8]: 180 s | inhibition at 1000 µM ([8]; Cavia porcellus, 1 × 10^-3 molar): 100% | inhibition at 100 µM ([8]; Cavia porcellus, 1 × 10^-4 molar): 10.4% | inhibition at 10 µM ([8]; Cavia porcellus, 1 × 10^-5 molar): 0% | inhibition at 200 µM ([8]; Cavia porcellus, 2 × 10^-4 molar): 30% | inhibition at 20 µM ([8]; Cavia porcellus, 2 × 10^-5 molar): 6.25% | inhibition at 500 µM ([8]; Cavia porcellus, 5 × 10^-4 molar): 59.1%
